According to patent publication US11040041B2, “Method of treating pulmonary arterial hypertension” (Cipla (UK) Limited, priority 2015, dated 2021):

Key:
[1] = test system: rats with monocrotaline induced pulmonary arterial hypertension; assay: Hemodynamic evaluation in anesthetized rats treated with monocrotaline to induce pulmonary arterial hypertension; assay type: in vivo, Sprague-Dawley rats; details: for RV/LV + S: Fulton's Index; for RV/LV + S / Body Weight / HR / HW/BW / Heart Wt / LV Wt / Lung Wt / MAP / Mean PAP / RV Wt / RV/BW / Systolic PAP: day 28 after monocrotaline, mean ± SEM
Experimental: The studies were conducted for Hemodynamic Evaluation of Paliperidone palmitate in Anesthetized Sprague Dawley Rats Treated with Monocrotaline to Induce Pulmonary Arterial Hypertension. Sildenafil was used as an internal control to compare the effects of Paliperidone palmitate.
Adult male Sprague-Dawley rats (287±4 g) were obtained from Charles River Laboratories (Raleigh, N.C.). Animals housed individually in a temperature/humidity controlled room with 12-hour light/dark cycles, had free access to water and food and were acclimated for one week prior to the study. Rats were randomly assigned (n=10 per group). Rats in groups 1 and 2 served as healthy controls; the remaining rats were injected subcutaneously on Day 0 with 60 mg/kg body weight monocrotaline, the toxic alkaloid of Crotalaria spectabilis, (dissolved in DMSO at a concentration of 60 mg/ml, Sigma Aldrich, St. Louis, Mo.). On days 1-21, the rats were dosed via oral gavage (2 ml/kg) with vehicle (PBS), or the test compound—Paliperidone palmitate. Rats were weighed daily, and the dosages of test compound adjusted appropriately.
Monocrotaline (MCT) is an 11-membered macrocyclic pyrrolizidine plant alkaloid. A single SQ injection into rats results in hepatic generation of toxic metabolite—MCT pyrrole. Phase II metabolism of MCT is through glutathione conjugation. Reactive metabolite is transported to lungs, injuring pulmonary vasculature.
The effects of sildenafil and Paliperidone palmitate were evaluated in rats with monocrotaline induced pulmonary arterial hypertension. Male Sprague-Dawley rats were orally administered vehicle, Paliperidone palmitate (1.25 or 3.75 mg/kg, once every day for 28 days starting on Day 1, or sildenafil (30 mg/kg, administered twice daily) (n=10 in each group). Rats received a single injection of monocrotaline (60 mg/kg, s.c.) on Study Day 1. On the twenty-eighth day following monocrotaline dosing, the rats were anesthetized with ketamine/xylazine for terminal monitoring of pulmonary and systemic arterial pressures along with heart rate.
The Table 1 gives the study design for the test article and vehicle administrations.

[2] = test system: rats with monocrotaline induced pulmonary arterial hypertension; assay: as above; assay type: in vivo, Sprague-Dawley rats; details: 3.25 mg/kg dosing (so in the source), after 28 days
[3] = Sildenafil 60 mg/kg/day bid oral
[4] = after 28 days, monocrotaline rats
[5] = Paliperidone palmitate 1.25 mg/kg oral once daily
[6] = Paliperidone palmitate 3.75 mg/kg oral once daily

CCCc1nn(C)c2c(=O)[nH]c(-c3cc(S(=O)(=O)N4CCN(C)CC4)ccc3OCC)nc12 [Sildenafil]
RV/LV + S [1, 3]: 0.51 ± 0.03
Body Weight [1, 3]: 0.32 ± 0.01 kg
HR [1, 3]: 278 ± 21 bpm
HW/BW [1, 3]: 3.89 ± 0.17
Heart Wt [1, 3]: 1.24 ± 0.02 g
LV Wt [1, 3]: 0.74 ± 0.02 g
Lung Wt [1, 3]: 2.36 ± 0.13 g
MAP [1, 3]: 69 ± 5 mm Hg
Mean PAP [1, 3]: 38 ± 6 mm Hg
RV Wt [1, 3]: 0.38 ± 0.02 g
RV/BW [1, 3]: 1.19 ± 0.09
Systolic PAP [1, 3]: 46 ± 7 mm Hg
differences in heart rate compared to vehicle [1, 4]: No substantive differences
differences in mean arterial pressure compared to vehicle [1, 4]: No substantive differences
decrease in hypertrophy, RV (wt) corrected by body weight ([1]; sildenafil (30 mg/kg twice daily), after 28 days, monocrotaline rats): 21%
right ventricular hypertrophy (RV/LV+S, Fulton's Index) change compared to vehicle ([1]; sildenafil cohort (30 mg/kg twice daily), after 28 days, monocrotaline rats): −14%
reduction of SPAP compared to the vehicle group ([1]; sildenafil group (30 mg/kg twice daily), after 28 days, monocrotaline rats): 23%

CCCCCCCCCCCCCCCC(=O)OC1CCCn2c1nc(C)c(CCN1CCC(c3noc4cc(F)ccc34)CC1)c2=O (stereo not shown) [Paliperidone palmitate, Hexadecanoic acid 3-[2-[4-(6-fluoro-1,2-benzisoxazol-3-yl)piperidin-1-yl]ethyl]-2-methyl-4-oxo-6,7,8,9-tetrahydro-4H-pyri do[1,2-a]pyrimidin-9-yl ester]
reduction in systolic pulmonary arterial pressure compared to the vehicle group [2]: 20%
reduction in systolic pulmonary arterial pressure compared to the vehicle group ([1]; 1.25 mg/kg dosing, after 28 days, monocrotaline rats): 25%
right ventricular hypertrophy (RV/LV+S, Fulton's Index) change compared to vehicle ([1]; 1.25 mg/kg, after 28 days, monocrotaline rats): −12%
right ventricular hypertrophy (RV/LV+S, Fulton's Index) change compared to vehicle ([1]; 3.75 mg/kg, after 28 days, monocrotaline rats): −7%
RV/LV + S [1, 5]: 0.52 ± 0.04
RV/LV + S [1, 6]: 0.55 ± 0.06
Body Weight [1, 5]: 0.33 ± 0.02 kg
HR [1, 5]: 253 ± 36 bpm
HW/BW [1, 5]: 3.94 ± 0.22
Heart Wt [1, 5]: 1.28 ± 0.03 g
LV Wt [1, 5]: 0.77 ± 0.01 g
Lung Wt [1, 5]: 2.59 ± 0.13 g
MAP [1, 5]: 54 ± 9 mm Hg
Mean PAP [1, 5]: 34 ± 1 mm Hg
RV Wt [1, 5]: 0.39 ± 0.02 g
RV/BW [1, 5]: 1.22 ± 0.10
Systolic PAP [1, 5]: 45 ± 3 mm Hg
Body Weight [1, 6]: 0.33 ± 0.02 kg
HR [1, 6]: 312 ± 12 bpm
HW/BW [1, 6]: 3.92 ± 0.21
Heart Wt [1, 6]: 1.28 ± 0.06 g
LV Wt [1, 6]: 0.73 ± 0.03 g
Lung Wt [1, 6]: 2.23 ± 0.04 g
MAP [1, 6]: 68 ± 5 mm Hg
Mean PAP [1, 6]: 39 ± 3 mm Hg
RV Wt [1, 6]: 0.40 ± 0.03 g
RV/BW [1, 6]: 1.22 ± 0.12
Systolic PAP [1, 6]: 48 ± 3 mm Hg
differences in heart rate compared to vehicle [1, 4]: No substantive differences
differences in mean arterial pressure compared to vehicle [1, 4]: No substantive differences
decrease in hypertrophy, RV (wt) corrected by body weight ([1]; at either dose (1.25 or 3.75 mg/kg), after 28 days, monocrotaline rats): 19%
development of PAH in the rat monocrotaline (MCT) model ([1]; daily oral doses, text says three weeks): prevent the development of PAH
